Source: ChEMBL document CHEMBL1268861, “Isolation and characterization of diastereomers of discorhabdins H and K and assignment of absolute configuration to discorhabdins D, N, Q, S, T, and U” (J Nat Prod, 2010)

tested on: P388; assay: Cytotoxicity against mouse P388 cells; type: functional, cell-based

Compound | IC50
Cn1cnc(S[C@@H]2[C@@H]3C(=O)C=C4S[C@@H]5C[C@@]42C2=C(N5)C(=O)c4[nH]cc5c4C2=[N+]3CC5)c1C[C@H](N)C(=O)O [DISCORHABDIN H2] | > 8.2 µM
Cn1cnc(S[C@H]2[C@H]3C(=O)C=C4S[C@H]5C[C@]42C2=C(N5)C(=O)c4[nH]cc5c4C2=[N+]3CC5)c1C[C@H](N)C(=O)O [DISCORHABDIN H] | > 8.2 µM
Cn1cnc(SC2=CC(=O)C=C3S[C@@H]4C[C@]23C2=C(N4)C(=O)c3[nH]cc4c3C2=NCC4)c1C[C@H](N)C(=O)O [DISCORHABDIN K2] | > 8.2 µM
Cn1cnc(SC2=CC(=O)C=C3S[C@H]4C[C@@]23C2=C(N4)C(=O)c3[nH]cc4c3C2=NCC4)c1C[C@H](N)C(=O)O [DISCORHABDIN K] | > 8.2 µM
